Test results: patent publication US11191766B2, “Methods of treating pediatric cancers” (Loxo Oncology, Inc., priority 2016, dated 2021)
Counter-ions that a name gives are not always drawn.

Legend:
[1] = first two cycles; fever and influenza A considered not related
[2] = test system: Infantile Fibrosarcoma with NTRK3-ETV6 Fusion; assay: Phase 1 pediatric study of oral liquid formulation, case of infantile fibrosarcoma (MR imaging response); assay type: in vivo, human
[3] = Flow properties (Carr's and Hausner Index); assay type: physicochemical
From the text: The differences in flow properties can make the development of a solid oral dosage form more difficult for the amorphous API vs. the crystalline API.

[4] = Hygroscopicity: dynamic vapor sorption (DVS) / exposure to humidity; assay type: physicochemical; settings: for hygroscopicity: non-hygroscopic = less than a 2% weight gain at 25° C. and 80% RH after 24 to 48 hours
Description: For the DVS measurement a sample of crystalline form (I-HS) was cycled through changing humidity conditions to determine its hygroscopicity. The sample was analyzed using a Surface Measurement System DVS-1 Dynamic Vapor Sorption System. […] Data was collected in 1 minute intervals. Nitrogen was used as the carrier gas. […] After completion of the sorption cycle, the sample was dried using the same procedure, but all the way down to 0% RH and finally taken back to the starting point of 20% RH. The weight change during the sorption/desorption cycles were plotted, allowing for the hygroscopic nature of the sample to be determined.
The crystalline form (I-HS), as noted previously, is non-hygroscopic. […] Given this tendency, use of the AM(HS) compound would require significant handling precautions during storage and manufacture to prevent this change in form from occurring whereas the crystalline form (I-HS) requires no such precautions during manufacture of the API.

[5] = Accelerated stability study in an LDPE bag at 40° C./75% RH for five weeks; assay type: physicochemical

Compound | adverse events related to compound [1] | response on repeat scans ([2]; end of Cycle 2, size reduction confirmed, continued decrease in enhancement) | interval reduction in the size and enhancement of the mass from baseline (MR of the brain and neck) ([2]; end of cycle 1 (day 28), BID, patient) | clinical observation noted by the parents ([2]; throughout cycle 1) | flow properties compared with amorphous API [3] | change in crystalline form during DVS (XRPD post vs pre DVS) [4] | hysteresis between sorption and desorption cycles ([4]; DVS) | increase in mass during the sorption cycle ([4]; between 0% and 90% RH) | hygroscopicity [4] | chemical impurity levels over the course of the study [5]
O=C(Nc1cnn2ccc(N3CCC[C@@H]3c3cc(F)ccc3F)nc12)N1CC[C@H](O)C1 [Compound I-HS, (S)—N-(5-((R)-2-(2,5-difluorophenyl)pyrrolidin-1-yl)-pyrazolo[1,5-a]pyrimidin-3-yl)-3-hydroxypyrrolidine-1-carboxamide hydrogen sulfate] | no adverse events related to Compound I-HS | partial response | more than 90% | improved engagement and playfulness |  |  |  |  |  | 
O=C(Nc1cnn2ccc(N3CCC[C@@H]3c3cc(F)ccc3F)nc12)N1CC[C@H](O)C1 [crystalline form (I-HS), (S)—N-(5-((R)-2-(2,5-difluorophenyl)pyrrolidin-1-yl)-pyrazolo[1,5-a]pyrimidin-3-yl)-3-hydroxypyrrolidine-1-carboxamide hydrogen sulfate] |  |  |  |  | better flow properties | no change | very small hysteresis | about 1.7% | non-hygroscopic | neither the AM(HS) or crystalline form (I-HS) exhibited a significant changes in chemical impurity levels
O=C(Nc1cnn2ccc(N3CCC[C@@H]3c3cc(F)ccc3F)nc12)N1CC[C@H](O)C1.O=S(=O)(O)O [AM(HS), (S)—N-(5-((R)-2-(2,5-difluorophenyl)pyrrolidin-1-yl)-pyrazolo[1,5-a]pyrimidin-3-yl)-3-hydroxypyrrolidine-1-carboxamide hydrogen sulfate] |  |  |  |  |  |  |  |  | deliquesce upon exposure to humidity | neither the AM(HS) or crystalline form (I-HS) exhibited a significant changes in chemical impurity levels
